TGI and GI50 data for seven compounds are collected here from PubChem BioAssay (NCI).

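Five concentrations, 48 hours, 96-well plates. GI50 marks 50% less growth. TGI: total growth inhibition.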

What all share (assay): growth of human tumour cells (NCI), 48 h
Test [1] has as its system OVCAR-8 ovarian.
The test system of test [2] is HCC-2998 colon.
In test [3] the test system is SF-268 CNS.
In test [4] the test system is U251 CNS.
In test [5] the test system is KM12 colon.
Test [6] deals with COLO 205 colon.
The test system of test [7] is SK-MEL-5 melanoma.
Test [8] relates to HCT-15 colon.
In test [9] the test system is SNB-19 CNS.
The subject of test [10] is SK-MEL-28 melanoma.

As to `Nc1ccn(C2OC(CO)C(O)C2O)c(=O)c1` (stereo not drawn), the TGI in [1], in test [2], in test [3], in [4], in test [5] and in [6] was greater than 625 µM throughout. In addition, the TGI in [7], in test [8], in test [9] and in test [10] was greater than 625 µM in each case.
`CN1C2CCC1CC(C)(O)C2` (stereo not drawn): the TGI in test [1], in test [2], in test [3], in test [4], in test [5] and in test [6] was greater than 100 µM in each case. Also, the TGI in test [8], in test [9] and in test [10] was greater than 100 µM in each case.
`COc1ccc(-c2nn(-c3ccc(NC(=O)Nc4cc(C(F)(F)F)cc(C(F)(F)F)c4)cc3)cc2-c2ccncc2)cc1Cl`: the GI50 in test [1] was 3.27 µM; in test [2], 3.12 µM; in test [3] it was 3.71 µM; in [4], 1.85 µM; in [5] it was 2.1 µM; in test [6], 2.06 µM. Moreover, the GI50 in test [7] was 1.93 µM; in test [8], 2.88 µM; in [9] it was 4 µM; in [10] it was 2.22 µM. Moreover, the TGI in test [1] is greater than 100 µM; in [2] it was 46.7 µM; in [3], 85.8 µM; in test [4] it was 5.48 µM; in test [5], 7.73 µM; in test [6], 4.17 µM. The TGI in test [7] was 4.34 µM; in [8] it was greater than 100 µM; in test [9] it was 27.3 µM; in [10], 6.18 µM.
For the compound `COc1ccc(N2C(=O)CSC2c2c[nH]c3ccccc23)cc1` (stereo not drawn), the TGI in [1], in test [2], in test [3], in test [4], in test [5] and in test [6] was greater than 100 µM in each case. Also, the TGI in test [7], in [8], in test [9] and in test [10] was greater than 100 µM each time.
As for `O=C(N/N=C/c1cc(Br)cc(Br)c1[O-])c1ccccc1O.O=C(N/N=C/c1cc(Br)cc(Br)c1[O-])c1ccccc1O.[Cu+2]`, the TGI in test [1] worked out at 1.38 µM; in [2], 1.48 µM; in [3], 2.51 µM; in [4], 1.24 µM; in [5] it was 1.98 µM; in [7], 0.844 µM. The TGI came to 1.77 µM in test [8], 2.28 µM in [9] and 2.01 µM in test [10].
On to `COc1ccc(C2COc3cc(O)c(O)cc3C2)cc1` (stereo not drawn), for which the TGI in [1] is 63.3 µM; in [2], 184 µM; in [3] it was 127 µM; in test [4] it was 77.8 µM; in test [5] it was 164 µM; in [6], 27.8 µM. The TGI in test [7] is 72.4 µM; in [8], 99.3 µM; in test [9], 214 µM; in test [10] it was 32.9 µM.
With `O=c1c(C(c2ccc(Cl)cc2)c2c(O)c3ccccc3n(-c3ccccc3)c2=O)c(O)c2ccccc2n1-c1ccccc1`, the TGI in test [1], in test [2], in [3], in test [4], in test [5] and in test [6] was greater than 100 µM in each case. The TGI in test [7], in [8], in test [9] and in test [10] was greater than 100 µM in each case.
